According to PubChem BioAssay (NCI):
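Following 48 hours of exposure in 96-well plates, responses at five concentrations were used to interpolate endpoints linearly. GI50: concentration for 50% inhibition of growth. Definition used: TGI = concentration required for complete inhibition of growth.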

Legend:
Assay in all cases: inhibition of tumour cell growth, NCI panel, 48 h
[1] = tested on: 786-0 renal
[2] = tested on: A549 NSCLC
[3] = tested on: ACHN renal
[4] = tested on: CAKI-1 renal
[5] = tested on: CCRF-CEM leukemia
[6] = tested on: COLO 205 colon
[7] = tested on: DLD-1 colon
[8] = tested on: DMS 114 small cell lung
[9] = tested on: DMS 273 small cell lung
[10] = tested on: EKVX NSCLC
[11] = tested on: HCC-2998 colon
[12] = tested on: HCT-116 colon
[13] = tested on: HCT-15 colon
[14] = tested on: HL-60(TB) leukemia
[15] = tested on: HOP-62 NSCLC
[16] = tested on: HOP-92 NSCLC
[17] = tested on: HT29 colon
[18] = tested on: K-562 leukemia
[19] = tested on: KM12 colon
[20] = tested on: KM20L2 colon
[21] = tested on: LOX IMVI melanoma
[22] = tested on: LXFL 529 NSCLC
[23] = tested on: M14 melanoma
[24] = tested on: M19-MEL melanoma
[25] = tested on: MALME-3M melanoma
[26] = tested on: MOLT-4 leukemia
[27] = tested on: NCI-H226 lung
[28] = tested on: NCI-H23 lung
[29] = tested on: NCI-H460 lung
[30] = tested on: NCI-H522 lung
[31] = tested on: OVCAR-3 ovarian
[32] = tested on: OVCAR-4 ovarian
[33] = tested on: OVCAR-5 ovarian
[34] = tested on: OVCAR-8 ovarian
[35] = tested on: RPMI-8226 leukemia
[36] = tested on: RXF 393 renal
[37] = tested on: SF-268 CNS
[38] = tested on: SF-295 CNS
[39] = tested on: SF-539 CNS
[40] = tested on: SK-MEL-2 melanoma
[41] = tested on: SK-MEL-28 melanoma
[42] = tested on: SK-MEL-5 melanoma
[43] = tested on: SK-OV-3 ovarian
[44] = tested on: SN12C renal
[45] = tested on: SNB-19 CNS
[46] = tested on: SNB-75 CNS
[47] = tested on: SNB-78 CNS
[48] = tested on: SR leukemia
[49] = tested on: SW-620 colon
[50] = tested on: TK-10 renal
[51] = tested on: U251 CNS
[52] = tested on: UACC-257 melanoma
[53] = tested on: UACC-62 melanoma
[54] = tested on: UO-31 renal
[55] = tested on: XF 498 CNS
[56] = tested on: A498 renal
[57] = tested on: IGROV1 ovarian

Nc1ccc2ncc(Nc3ccc(Cl)c(Cl)c3)nc2c1
TGI [1]: > 100 µM
TGI [2]: > 100 µM
TGI [3]: 86.3 µM
TGI [4]: 67.3 µM
TGI [5]: 65.6 µM
TGI [6]: 32.9 µM
TGI [7]: > 100 µM
TGI [8]: 42.1 µM
TGI [9]: 49.5 µM
TGI [10]: 88.9 µM
TGI [11]: 32.8 µM
TGI [12]: 57.3 µM
TGI [13]: > 100 µM
TGI [14]: 38.3 µM
TGI [15]: 84.3 µM
TGI [16]: 52.3 µM
TGI [17]: 34.9 µM
TGI [18]: > 100 µM
TGI [19]: > 100 µM
TGI [20]: > 100 µM
TGI [21]: > 100 µM
TGI [22]: > 100 µM
TGI [23]: 94.1 µM
TGI [24]: 47.4 µM
TGI [25]: 55.8 µM
TGI [26]: 65.1 µM
TGI [27]: 62.6 µM
TGI [28]: 47.9 µM
TGI [29]: > 100 µM
TGI [30]: 48.8 µM
TGI [31]: 40.1 µM
TGI [32]: > 100 µM
TGI [33]: > 100 µM
TGI [34]: 83.3 µM
TGI [35]: > 100 µM
TGI [36]: 55.2 µM
TGI [37]: > 100 µM
TGI [38]: 49.9 µM
TGI [39]: 40.4 µM
TGI [40]: > 100 µM
TGI [41]: 84.1 µM
TGI [42]: 36.1 µM
TGI [43]: > 100 µM
TGI [44]: > 100 µM
TGI [45]: 81.4 µM
TGI [46]: 59.4 µM
TGI [47]: 74.1 µM
TGI [48]: > 100 µM
TGI [49]: > 100 µM
TGI [50]: > 100 µM
TGI [51]: 80.1 µM
TGI [52]: 54.6 µM
TGI [53]: 50.9 µM
TGI [54]: > 100 µM
TGI [55]: 60.8 µM

O=c1cccccc1[O-].O=c1cccccc1[O-].O=c1cccccc1[O-].[Dy+3]
TGI [1]: > 100 µM
GI50 [56]: 80.7 µM
TGI [56]: > 100 µM
TGI [2]: > 100 µM
TGI [3]: > 100 µM
TGI [4]: > 100 µM
TGI [5]: 55.2 µM
GI50 [7]: 16.9 µM
TGI [7]: > 100 µM
GI50 [9]: 9.28 µM
TGI [9]: > 100 µM
TGI [10]: > 100 µM
TGI [11]: > 100 µM
TGI [12]: 41.4 µM
TGI [13]: > 100 µM
TGI [14]: 54.3 µM
GI50 [15]: 33 µM
TGI [15]: 99.9 µM
TGI [16]: > 100 µM
TGI [17]: > 100 µM
TGI [57]: > 100 µM
TGI [18]: > 100 µM
TGI [19]: > 100 µM
GI50 [20]: 18.4 µM
TGI [20]: > 100 µM
TGI [21]: > 100 µM
TGI [23]: > 100 µM
TGI [25]: > 100 µM
TGI [26]: 46.2 µM
TGI [27]: > 100 µM
TGI [28]: 66.4 µM
TGI [29]: > 100 µM
TGI [30]: > 100 µM
TGI [31]: 41.1 µM
TGI [32]: > 100 µM
TGI [33]: > 100 µM
TGI [34]: 97.6 µM
TGI [35]: 76.2 µM
TGI [36]: 79 µM
TGI [37]: > 100 µM
TGI [38]: > 100 µM
GI50 [39]: 17.9 µM
TGI [39]: 78 µM
TGI [40]: > 100 µM
TGI [41]: > 100 µM
TGI [42]: 72.3 µM
TGI [43]: 98.3 µM
GI50 [44]: 17.7 µM
TGI [44]: > 100 µM
TGI [45]: > 100 µM
TGI [46]: 52.1 µM
GI50 [47]: 15.3 µM
TGI [47]: > 100 µM
TGI [49]: > 100 µM
TGI [50]: > 100 µM
GI50 [51]: 24.8 µM
TGI [51]: > 100 µM
TGI [52]: > 100 µM
TGI [53]: > 100 µM
TGI [54]: > 100 µM

Cc1[nH]n(C(=O)c2ccc(Cl)cc2)c(=O)c1/C=C1\C(O)=CC(=O)c2ccccc21
TGI [1]: > 100 µM
TGI [56]: > 100 µM
TGI [2]: > 100 µM
TGI [3]: > 100 µM
TGI [4]: > 100 µM
TGI [5]: > 100 µM
TGI [6]: > 100 µM
TGI [7]: > 100 µM
TGI [8]: > 100 µM
TGI [10]: > 100 µM
TGI [11]: > 100 µM
TGI [12]: > 100 µM
TGI [14]: > 100 µM
TGI [15]: > 100 µM
TGI [16]: > 100 µM
TGI [17]: > 100 µM
TGI [57]: > 100 µM
TGI [18]: > 100 µM
TGI [19]: > 100 µM
TGI [20]: > 100 µM
TGI [21]: > 100 µM
TGI [22]: > 100 µM
TGI [23]: > 100 µM
TGI [24]: > 100 µM
TGI [25]: > 100 µM
TGI [26]: > 100 µM
TGI [28]: > 100 µM
TGI [29]: > 100 µM
TGI [30]: > 100 µM
TGI [31]: > 100 µM
TGI [32]: > 100 µM
TGI [33]: > 100 µM
TGI [34]: > 100 µM
TGI [35]: > 100 µM
TGI [36]: > 100 µM
TGI [37]: > 100 µM
TGI [38]: > 100 µM
TGI [39]: > 100 µM
TGI [40]: > 100 µM
TGI [41]: > 100 µM
TGI [42]: > 100 µM
TGI [43]: > 100 µM
TGI [44]: > 100 µM
TGI [45]: > 100 µM
TGI [47]: > 100 µM
TGI [49]: > 100 µM
TGI [50]: > 100 µM
TGI [51]: > 100 µM
TGI [52]: > 100 µM
TGI [53]: > 100 µM
TGI [54]: > 100 µM
TGI [55]: > 100 µM
